Drawing on ChEMBL document CHEMBL1121939, “1-beta-D-arabinofuranosyl-1H-imidazo[4,5-c]pyridine (ara-3-deazaadenine)” (J Med Chem, 1982), this text covers IC50, MED50 and Virus rating for 3 molecules.

The target of one assay is Adenosylhomocysteinase (Homo sapiens, UniProt P23526). In words: Inhibitory activity against S-adenosyl-homocysteine hydrolase. Also noted: species or system herpes simplex virus. The conditions noted are these: read-out: I50.
The subject of a further assay is L929. Description: Inhibitory activity against herpes simplex virus type 1 grown in L929 cells. The class given is functional, Mus musculus.

Adenosylhomocysteinase, sequence (P23526 whole entry): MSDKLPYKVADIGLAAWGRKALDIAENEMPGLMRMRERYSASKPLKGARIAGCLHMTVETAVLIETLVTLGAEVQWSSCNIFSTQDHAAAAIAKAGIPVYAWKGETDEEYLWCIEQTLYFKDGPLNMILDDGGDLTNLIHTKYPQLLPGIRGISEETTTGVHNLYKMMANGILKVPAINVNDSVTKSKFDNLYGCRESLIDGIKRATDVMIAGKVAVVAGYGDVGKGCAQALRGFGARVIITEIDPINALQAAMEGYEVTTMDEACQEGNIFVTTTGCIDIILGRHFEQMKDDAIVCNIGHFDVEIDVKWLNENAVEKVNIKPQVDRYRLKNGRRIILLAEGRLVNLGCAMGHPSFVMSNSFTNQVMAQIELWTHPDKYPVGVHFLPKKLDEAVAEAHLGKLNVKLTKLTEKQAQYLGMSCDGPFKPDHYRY

As for `Nc1nccc2c1ncn2[C@@H]1O[C@H](CO)[C@@H](O)[C@H]1O`, the IC50 on Adenosylhomocysteinase is 4 µM.
In the assay with L929, `Nc1nccc2c1ncn2[C@@H]1O[C@H](CO)[C@@H](O)[C@@H]1O` returned an MED50 of 189 µg/mL and a Virus rating of 0.8. Moreover, the IC50 at Adenosylhomocysteinase was 100 µM.
As for `Nc1ncnc2c1ncn2[C@@H]1O[C@H](CO)[C@@H](O)[C@@H]1O` [VIDARABINE], in the assay on L929, the MED50 is 0.8 µg/mL and the Virus rating amounted to 3.7.
